Experimental data published in patent publication US20110118288A1, “PHARMACEUTICAL COMPOSITION FOR TREATING HYPERTENSION AND METABOLIC SYNDROME AND USE THEREOF” (priority 2008, published 2011).

Assays:
[1] = tested on: spontaneously hypertensive rats; experiment: Carotid intima-media thickness in spontaneously hypertensive rats; format: in vivo, rat; settings: SHR carotid artery, high sugar and high fat diets, intragastric once every day for six months
Experimental: Each group was given intragastric administration once every day and fed with high sugar and high fat diets for six months. During the experiment, the diet, survival status and behaviors of the animals were recorded, and the animals were weighed once every day and the doses of administration were adjusted according to the body weights. After the animal was anesthetized and fixed, Even's blue (60 mg/kg) dye was injected via a femoral artery. After 30 minutes, myocardial perfusion was performed with 0.9% physiological saline as a perfusate at a perfusion pressure of 13.3 kPa until the effluent became clear. Then, 4% paraformaldehyde in physiological saline was perfused for 10 minutes for in situ fixation (the perfusion pressure was the same as above). The section of Even's blue-stained carotid artery was taken and further fixed with formalin solution, and three parts, i.e. the front, the middle and the rear parts, respectively, were sampled and embedded in paraffin, and then sliced discontinuously to obtain 8 to 10 layers, which were stained with HE. Three vascular sections were randomly selected and input into a computer image processing system so as to perform a computerized image measurement, thereby calculating the intima-media thickness.

[2] = tested on: spontaneously hypertensive rats; experiment: Urinary microalbumin (bromophenol blue absorbance) in spontaneously hypertensive rats; format: in vivo, rat; settings: SHR, high sugar and high fat diets, intragastric once every day, twelve-hour overnight urine; time point not given in table
Experimental: Model control group: intragastric administration of same volume of physiological saline; […] L group: 5 mg/(kg·d) of losartan; R group: 1 mg/(kg·d) of rosuvastatin group; L+R group: 5 mg/(kg·d) of losartan+1 mg/(kg·d) of rosuvastatin calcium; P+R group: 1.5 mg/(kg·d) of pioglitazone+1 mg/(kg·d) of rosuvastatin calcium; L+P group: 5 mg/(kg·d) of losartan+1.5 mg/(kg·d) of pioglitazone; […] Each group was given intragastric administration once every day and fed with high sugar and high fat diets for six months. During the experiment, the diet, survival status and behaviors of the animals were recorded, and the animals were weighed once every day and the doses of administration were adjusted according to the body weights. 1. 10% (v/v) glacial acetic acid solution (pH 2.8). 2. 0.303 mol/L glycine-glacial acetic acid buffer solution (pH 3.0): 22.72 g of glycine was weighed and diluted with 10% glacial acetic acid solution to 1000 ml, to which 100 mg of NaN3 was added. The buffer solution can be kept for one year at room temperature after sealed. 3. Bromophenol blue (1.924 mmol/L) stock solution: 257.36 mg of BPB was precisely weighed and dissolved to 200 ml with absolute ethanol. The stock solution can be kept for one year in a refrigerator at 4° C. 4. Bromophenol blue (0.231 mmol/L) developing agent: to 60 ml of BPB stock solution, 2.5 ml Triton X-100 was added, and then diluted to 500 ml with glycine-glacial acetic acid buffer solution. The developing agent can be kept for one year at room temperature after sealed. Collection and detection of samples: rats were taken out and fed in a metabolic cage at the fourth week, the eighth week, the twelfth week and the sixteenth week, respectively, and twelve-hour overnight urinary collection was performed. Urinary amounts were precisely recorded. 4 ml of urine was sampled, treated with sodium azide, and centrifuged at 2000 r/min for 10 min.

[3] = tested on: spontaneously hypertensive rats; experiment: Cardiac hypertrophy (left ventricular weight/body weight) in spontaneously hypertensive rats; format: in vivo, rat; settings: SHR, after ten weeks of intragastric administration once every day
Experimental: Each group was given intragastric administration once every day for ten weeks. During the experiment, the diet, survival status and behaviors of the animals were recorded, and the animals were weighed once every day and the doses of administration were adjusted according to the body weights. Animals were sacrificed after ten weeks, and their hearts were taken out to determine the weights of left ventricles and calculate left ventricular indexes. After being sacrificed with 10% potassium chloride (2 mmol/L, 1 ml/rat), the rats were weighed. Heart was taken out and aortas and connective tissues outside of the heart were removed. The heart was cleaned by washing, dried with a filter paper, and weighed. The left ventricular was weighed after the atria were removed, and a ratio of left ventricular weight to body weight was calculated.

[4] = tested on: spontaneously hypertensive rats; experiment: Tail arterial blood pressure of conscious spontaneously hypertensive rats; format: in vivo, rat; settings: for blood pressure, after treatment, eighth week / blood pressure, after treatment, fifth week / blood pressure, after treatment, first week / blood pressure, after treatment, third week: SHR, intragastric once every day, 2-5 h after administration; for blood pressure, before treatment: spontaneously hypertensive rats, baseline before treatment, n = 11
Experimental: Model control group: intragastric administration of same volume of physiological saline; P group: 0.5 mg/(kg·d) of pioglitazone; L group: 5 mg/(kg·d) of losartan; R group: 0.5 mg/(kg·d) of rosuvastatin calcium; L+R group: 5 mg/(kg·d) of losartan+0.5 mg/(kg·d) of rosuvastatin calcium; P+R group: 0.5 mg/(kg·d) of pioglitazone+0.5 mg/(kg·d) of rosuvastatin calcium; L+P group: 5 mg/(kg·d) of losartan+0.5 mg/(kg·d) of pioglitazone; […] Each group was given intragastric administration once every day for ten weeks. During the experiment, the diet, survival status and behaviors of the animals were recorded, and the animals were weighed once every day and the doses of administration were adjusted according to the body weights. Animals were sacrificed after ten weeks, and their hearts were taken out to determine the weights of left ventricles and calculate left ventricular indexes. Temperature was controlled between 18° C. and 22° C., humidity was controlled between 45% and 65%, and indoor natural light was used. Tail arterial blood pressure of a conscious rat was measured with Intelligent Non-invasive Blood Pressure Monitor BP-2006A (provided by Beijing Softron Co., Ltd.). Blood pressures were measured five times between two and five hours after intragastric administration in the first week, the third week, the fifth week and the eighth week, respectively. The average value of the blood pressures was used as the blood pressure of the sample.

[5] = tested on: metabolic syndrome patients; experiment: Treatment of patients suffered from metabolic syndrome (FBG, FINS, HbAlC, TC/HDLC, Fg); format: in vivo, human
Excerpt: Sixth-four metabolic syndrome patients were selected from those received treatment in Linyi People's Hospital from March 2007 to June 2008, and randomly divided into a control group and an experimental group. Control group: twenty-one males and eleven females, whose ages were between 61 and 72 and whose body mass indexes (BMI) were between 26 and 30; Experimental group: nineteen males and thirteen females, whose ages were between 62 and 70 and whose body mass indexes (BMI) were between 25.5 and 31; Before the treatment, all patients were subjected to blood lipids (including total cholesterol (TC), high-density lipid cholesterol (HDLC)) analysis, and detection of glycated hemoglobin (HbAlC), fasting blood glucose (FBG), fasting insulin (FINS) and fibrinogen (Fg). […] After eight weeks of continuous treatment, all of the above parameters were re-determined, in which blood glucose was determined with hexokinase method, blood lipid was determined with esterase method, fibrinogen was determined with coagulation method and chromogenic substrate assay, HbAlC was determined with chromatography, and fasting insulin was determined with chemiluminescence immunoassay. Statistical analysis: SPSS software was employed, and test of significance was performed by using a paired sample t test.

[6] = once every day, after eight weeks

Structure (SMILES)	Maximum intima thickness [1]	Ratio of intima to media thickness [1]	urinary microalbumin, Absorbance A (600 nm) [2]	Left ventricular weight [3]	Left ventricular weight/body weight (×10^-3) [3]	blood pressure, after treatment, eighth week [4]	blood pressure, after treatment, fifth week [4]	blood pressure, after treatment, first week [4]	blood pressure, after treatment, third week [4]	blood pressure, before treatment [4]	FBG, before treatment ([5]; before treatment)	FINS, before treatment ([5]; before treatment)	Fg, before treatment ([5]; before treatment)	HbAlC, before treatment ([5]; before treatment)	TC/HDLC, before treatment ([5]; before treatment)	FBG, after treatment [5, 6]	FINS, after treatment [5, 6]	Fg, after treatment [5, 6]	HbAlC, after treatment [5, 6]	TC/HDLC, after treatment [5, 6]
CCCCc1nc(Cl)c(CO)n1Cc1ccc(-c2ccccc2-c2nn[nH]n2)cc1 [L group, losartan]	0.0926 mm	1.8055	0.6132	0.873 g	2.90 ×10^-3	156 mmHg	155 mmHg	168 mmHg	162 mmHg	171 mmHg	–	–	–	–	–	–	–	–	–	–
CC(C)c1nc(N(C)S(C)(=O)=O)nc(-c2ccc(F)cc2)c1/C=C/[C@@H](O)C[C@@H](O)CC(=O)O [R group, rosuvastatin calcium]	0.1153 mm	2.0754	0.5672	0.960 g	3.16 ×10^-3	169 mmHg	170 mmHg	166 mmHg	168 mmHg	168 mmHg	–	–	–	–	–	–	–	–	–	–
CCc1ccc(CCOc2ccc(CC3SC(=O)NC3=O)cc2)nc1 (stereo not shown) [P group, pioglitazone]	0.0958 mm	1.8325	0.5714	0.986 g	3.30 ×10^-3	172 mmHg	171 mmHg	172 mmHg	168 mmHg	172 mmHg	7.11 mmol/L	31.5 mlU/L	426.3 mg/dL	6.92%	4.25	6.69 mmol/L	24.36 mlU/L	390.8 mg/dL	6.33%	3.84
